Source: patent publication KR20140034898A, “헤테로시클릭 술폰아미드 유도체” (노파르티스 아게, priority 2011, dated 2012)

Columns and labels:
[1] = target: BRAF-MEK-ERK cascade [BRAF-MEK-ERK 캐스케이드]; experiment: BRAF-MEK-ERK cascade assay (TR-FRET, recombinant enzymes); type: biochemical, human; details: mean ± SEM, n=3; 100 μM ATP; 45 min pre-incubation, 90 min kinase reaction
[2] = test system: A375 cells [A375 세포]; experiment: A375 cell viability assay (XTT); type: cell-based; details: Homo sapiens, A-375, 72 h, 3 days after compound addition
[3] = test system: A375 P-Erk; experiment: A375 P-Erk (In-Cell-Western); type: cell-based; details: A-375; A375 human melanoma cells, 3 h compound treatment, triplicate; 100% inhibition = reference inhibitor at highest test concentration
[4] = Pharmacokinetics in athymic nude rats; type: in vivo, rat; details: one-way ANOVA versus Example 1

IC50 [1] [nM]	GI50 [2] [nM]	EC50 [3] [nM]	PK parameters compared with Example 1 [4]	Structure (SMILES)
2.1 ± 0.58	17.6	12.2	–	O=S(=O)(Nc1c(Nc2ccc(I)cc2F)c(F)c(F)c2ccoc12)C1(CC(O)CO)CC1 (racemic) [실시예 1, 1-(2,3-디히드록시-프로필)-시클로프로판술폰산 [4,5-디플루오로-6-(2-플루오로-4-아이오도-페닐아미노)-벤조푸란-7-일]아미드]
2 ± 0.25	13.4	6.4	증진된 PK-파라미터	O=S(=O)(Nc1c(Nc2ccc(I)cc2F)c(F)c(F)c2ccoc12)C1(C[C@H](O)CO)CC1 (single isomer, unassigned) [실시예 1A]
1.6 ± 0.1	29.6	15.6	증진된 PK-파라미터	O=S(=O)(Nc1c(Nc2ccc(I)cc2F)c(F)c(F)c2ccoc12)C1(C[C@@H](O)CO)CC1 (single isomer, unassigned) [실시예 1B]
